One block for each compound: values may come before it.
How the values were obtained:
[1] = biological target: Ribosomal protein S6 kinase alpha-1 (Homo sapiens, UniProt Q15418); experiment: Selectivity interaction (Millipore kinase profiler) EUB0000124b RPS6KA1; settings: at 10 µM
[2] = biological target: Mitogen-activated protein kinase 8 (Homo sapiens, UniProt P45983); experiment: Selectivity interaction (Kinase panel (Invitrogen)) EUB0000639a MAPK8; settings: at 200 nM
[3] = biological target: Tyrosine-protein kinase SYK (Homo sapiens, UniProt P43405)
[4] = biological target: Protein-tyrosine kinase 2-beta (Homo sapiens) (UniProt Q14289); experiment: Selectivity interaction (KinomeScan (DiscoverX)) EUB0000229b PTK2B; settings: at 10 µM
[5] = biological target: T1, Ephrin type-A receptor 6 (Homo sapiens) (UniProt Q9UF33); experiment: Selectivity interaction (KinomeScan (DiscoverX)) EUB0000092b EPHA6; settings: at 10 µM
T1 sequence (whole entry): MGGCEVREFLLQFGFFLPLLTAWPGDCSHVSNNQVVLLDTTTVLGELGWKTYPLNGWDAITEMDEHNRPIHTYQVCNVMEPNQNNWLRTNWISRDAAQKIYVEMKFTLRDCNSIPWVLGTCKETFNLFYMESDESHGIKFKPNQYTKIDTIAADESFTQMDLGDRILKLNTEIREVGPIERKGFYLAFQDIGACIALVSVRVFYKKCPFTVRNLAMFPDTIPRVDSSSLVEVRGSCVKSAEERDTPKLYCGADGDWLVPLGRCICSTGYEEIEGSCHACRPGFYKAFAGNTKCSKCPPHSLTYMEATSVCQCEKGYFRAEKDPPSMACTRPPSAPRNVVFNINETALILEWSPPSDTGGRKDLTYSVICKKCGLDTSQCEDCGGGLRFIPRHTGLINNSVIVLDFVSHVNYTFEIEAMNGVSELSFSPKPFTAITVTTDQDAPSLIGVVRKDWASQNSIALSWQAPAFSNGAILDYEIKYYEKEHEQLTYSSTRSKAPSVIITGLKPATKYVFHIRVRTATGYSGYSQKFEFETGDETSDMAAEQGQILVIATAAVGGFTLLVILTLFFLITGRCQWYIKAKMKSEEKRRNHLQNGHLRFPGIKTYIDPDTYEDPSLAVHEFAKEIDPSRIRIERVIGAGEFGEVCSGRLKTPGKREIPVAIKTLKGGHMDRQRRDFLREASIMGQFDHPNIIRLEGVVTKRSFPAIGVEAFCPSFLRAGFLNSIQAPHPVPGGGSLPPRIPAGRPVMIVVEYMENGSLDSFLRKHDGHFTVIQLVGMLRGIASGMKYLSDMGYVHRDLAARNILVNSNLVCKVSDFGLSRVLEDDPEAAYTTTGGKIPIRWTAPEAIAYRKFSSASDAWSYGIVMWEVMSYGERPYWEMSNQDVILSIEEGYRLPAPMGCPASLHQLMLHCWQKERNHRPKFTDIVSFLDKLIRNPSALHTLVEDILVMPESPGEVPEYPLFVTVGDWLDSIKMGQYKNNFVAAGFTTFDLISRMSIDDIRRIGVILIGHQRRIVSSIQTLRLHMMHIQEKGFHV

[6] = biological target: T2, Serine/threonine-protein kinase LATS1 (Homo sapiens) (UniProt O95835); experiment: Selectivity interaction (KinomeScan (DiscoverX)) EUB0000666a LATS1; settings: at 10 µM
T2 sequence (whole entry): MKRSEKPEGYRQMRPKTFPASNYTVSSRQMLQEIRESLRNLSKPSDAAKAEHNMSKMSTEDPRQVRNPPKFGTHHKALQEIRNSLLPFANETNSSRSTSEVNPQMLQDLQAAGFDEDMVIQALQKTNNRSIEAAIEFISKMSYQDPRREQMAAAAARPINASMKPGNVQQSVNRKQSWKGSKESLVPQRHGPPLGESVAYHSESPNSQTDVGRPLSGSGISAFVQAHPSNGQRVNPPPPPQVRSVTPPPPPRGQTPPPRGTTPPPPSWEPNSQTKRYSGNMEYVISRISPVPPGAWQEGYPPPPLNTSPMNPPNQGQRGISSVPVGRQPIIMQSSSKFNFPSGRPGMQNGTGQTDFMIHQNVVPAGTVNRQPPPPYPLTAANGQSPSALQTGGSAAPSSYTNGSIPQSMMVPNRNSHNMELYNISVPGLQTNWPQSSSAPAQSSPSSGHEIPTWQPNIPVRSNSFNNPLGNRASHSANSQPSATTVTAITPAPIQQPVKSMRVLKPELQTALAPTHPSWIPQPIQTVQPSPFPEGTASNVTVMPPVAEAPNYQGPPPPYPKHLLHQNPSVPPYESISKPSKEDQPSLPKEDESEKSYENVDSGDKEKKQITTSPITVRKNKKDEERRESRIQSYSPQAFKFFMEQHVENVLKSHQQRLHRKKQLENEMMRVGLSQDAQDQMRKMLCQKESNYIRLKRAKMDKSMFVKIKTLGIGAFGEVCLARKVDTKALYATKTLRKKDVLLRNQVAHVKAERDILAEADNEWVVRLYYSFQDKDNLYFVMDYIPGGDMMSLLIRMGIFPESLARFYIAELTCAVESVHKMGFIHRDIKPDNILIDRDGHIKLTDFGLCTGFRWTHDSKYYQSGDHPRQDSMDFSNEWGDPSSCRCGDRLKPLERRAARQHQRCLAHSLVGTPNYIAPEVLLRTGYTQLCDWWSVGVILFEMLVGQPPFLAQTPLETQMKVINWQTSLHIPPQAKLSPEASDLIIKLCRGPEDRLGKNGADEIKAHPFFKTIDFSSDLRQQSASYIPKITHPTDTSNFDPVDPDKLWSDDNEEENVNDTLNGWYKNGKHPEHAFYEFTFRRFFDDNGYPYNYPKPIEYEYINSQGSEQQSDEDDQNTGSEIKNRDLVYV

Ribosomal protein S6 kinase alpha-1, sequence (Q15418 whole entry): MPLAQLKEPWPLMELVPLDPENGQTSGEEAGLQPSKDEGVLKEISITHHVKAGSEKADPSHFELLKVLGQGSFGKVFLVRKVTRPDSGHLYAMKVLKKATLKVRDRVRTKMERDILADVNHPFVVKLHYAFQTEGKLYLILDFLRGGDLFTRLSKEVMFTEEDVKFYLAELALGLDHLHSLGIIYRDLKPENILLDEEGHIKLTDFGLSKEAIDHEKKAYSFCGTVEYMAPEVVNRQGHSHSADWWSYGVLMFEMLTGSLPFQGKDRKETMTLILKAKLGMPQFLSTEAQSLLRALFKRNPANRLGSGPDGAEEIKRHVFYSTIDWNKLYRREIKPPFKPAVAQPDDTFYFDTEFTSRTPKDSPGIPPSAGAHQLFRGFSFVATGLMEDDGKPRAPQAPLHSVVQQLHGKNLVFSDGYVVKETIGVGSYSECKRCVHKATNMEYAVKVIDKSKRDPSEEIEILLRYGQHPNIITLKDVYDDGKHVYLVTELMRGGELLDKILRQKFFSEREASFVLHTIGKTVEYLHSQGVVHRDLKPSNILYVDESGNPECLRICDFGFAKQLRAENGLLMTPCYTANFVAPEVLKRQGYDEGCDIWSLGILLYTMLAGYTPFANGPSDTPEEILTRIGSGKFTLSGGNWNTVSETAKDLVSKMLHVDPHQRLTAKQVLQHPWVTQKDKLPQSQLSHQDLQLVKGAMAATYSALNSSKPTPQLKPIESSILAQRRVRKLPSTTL
Mitogen-activated protein kinase 8, sequence (P45983 whole entry): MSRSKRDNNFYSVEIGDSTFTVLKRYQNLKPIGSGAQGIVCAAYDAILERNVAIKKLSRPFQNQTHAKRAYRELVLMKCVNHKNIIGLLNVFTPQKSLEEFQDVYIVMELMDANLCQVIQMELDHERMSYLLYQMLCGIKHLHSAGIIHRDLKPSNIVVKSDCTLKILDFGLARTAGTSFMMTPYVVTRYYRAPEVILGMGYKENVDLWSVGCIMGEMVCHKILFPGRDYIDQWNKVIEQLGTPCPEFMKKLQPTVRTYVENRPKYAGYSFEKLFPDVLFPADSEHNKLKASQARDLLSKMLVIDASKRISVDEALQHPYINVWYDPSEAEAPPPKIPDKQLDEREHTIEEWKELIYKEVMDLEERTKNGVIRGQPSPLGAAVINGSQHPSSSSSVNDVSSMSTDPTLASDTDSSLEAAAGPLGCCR
Protein-tyrosine kinase 2-beta (Homo sapiens), sequence (Q14289 whole entry, looked up): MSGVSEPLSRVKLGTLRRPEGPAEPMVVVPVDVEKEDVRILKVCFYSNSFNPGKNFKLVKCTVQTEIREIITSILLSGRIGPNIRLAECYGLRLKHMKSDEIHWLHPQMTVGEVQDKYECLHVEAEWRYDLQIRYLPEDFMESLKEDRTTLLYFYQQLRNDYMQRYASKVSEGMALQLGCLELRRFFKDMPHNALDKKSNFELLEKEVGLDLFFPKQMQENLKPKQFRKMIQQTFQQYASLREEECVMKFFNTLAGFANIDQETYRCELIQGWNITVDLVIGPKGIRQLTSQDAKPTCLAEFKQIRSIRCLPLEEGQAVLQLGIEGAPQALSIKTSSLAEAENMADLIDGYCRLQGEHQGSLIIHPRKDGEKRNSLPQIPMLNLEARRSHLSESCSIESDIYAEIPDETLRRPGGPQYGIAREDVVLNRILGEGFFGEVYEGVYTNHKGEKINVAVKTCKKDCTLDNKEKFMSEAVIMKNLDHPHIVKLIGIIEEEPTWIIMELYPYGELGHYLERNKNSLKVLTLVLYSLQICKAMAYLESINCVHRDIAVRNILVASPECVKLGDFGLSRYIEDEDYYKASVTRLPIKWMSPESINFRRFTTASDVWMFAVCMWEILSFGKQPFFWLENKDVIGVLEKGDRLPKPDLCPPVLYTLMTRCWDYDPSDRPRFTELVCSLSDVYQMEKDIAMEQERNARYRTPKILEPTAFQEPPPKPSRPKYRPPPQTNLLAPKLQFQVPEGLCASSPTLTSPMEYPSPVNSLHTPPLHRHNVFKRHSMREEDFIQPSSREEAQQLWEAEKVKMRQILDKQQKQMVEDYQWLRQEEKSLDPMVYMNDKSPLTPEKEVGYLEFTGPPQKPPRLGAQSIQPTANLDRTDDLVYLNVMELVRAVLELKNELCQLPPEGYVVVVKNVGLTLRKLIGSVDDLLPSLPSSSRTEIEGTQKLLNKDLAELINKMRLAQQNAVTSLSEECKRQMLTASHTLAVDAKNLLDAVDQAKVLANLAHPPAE

SMILES: CC[C@@H]1[C@H](F)C(=O)N[C@@H]1COc1nccc2cc(C(N)=O)c(OC)cc12 [ZIMLOVISERTIB]
- % of inhibition [2]: -0.665%

SMILES: COc1cc(N(C)c2ccnc3ccc(C(F)(F)F)cc23)cc(OC)c1OC
- % binding [4]: 95%

SMILES: CCC(=O)N1CCN(c2ccc(-n3c(=O)ccc4cnc5ccc(-c6cnc7ccccc7c6)cc5c43)cc2C(F)(F)F)CC1
- % of control [5]: 75%

SMILES: O=C(NOC[C@H](O)CO)c1ccc(F)c(F)c1Nc1ccc(I)cc1F
- % of control [6]: 100%

Other lines, results leading:

- % of control [1]: 116%
SMILES: CC(=O)Nc1cccc(-n2c(=O)n(C3CC3)c(=O)c3c(Nc4ccc(I)cc4F)n(C)c(=O)c(C)c32)c1

- IC50 [3]: > 10 µM
SMILES: CCc1cccc(CC)c1NC(=O)c1nn(C)c2c1CCc1cnc(Nc3ccc(C(=O)NC4CCN(C)CC4)cc3OC(F)(F)F)nc1-2

Reference: ChEMBL document CHEMBL5465560, “Selectivity Literature for EUbOPEN Chemogenomic Library” (2024)
